Data taken from article PMC9962224, “Novel Inhibitors of Acetyl- and Butyrylcholinesterase Derived from Benzohydrazides: Synthesis, Evaluation and Docking Study” (Pharmaceuticals, 2023).
Like-named read-outs stand apart in the source and are kept apart here.

Tests used:
[1] = biological target: T1, BChE from equine serum (EqBChE) (Equus caballus, UniProt P81908); details: parent N-alkyl-2-[4-(trifluoromethyl)benzoyl]hydrazine-1-carboxamides; cited from earlier work
T1 construct: BChE from equine serum; purchased Merck (Prague, Czech Republic); host or cells: equine serum (natural source)

[2] = biological target: T1, BChE from equine serum (EqBChE); experiment: biochemical; format: biochemical; details: equine serum BChE; mean ± SD from three independent experiments
From the text: (§1) Hydrazinecarboxamides 1–3 were examined in vitro for their potential to inhibit the function of AChE (obtained from electric eel) and BChE from equine serum using Ellman’s spectrophotometric method (Table 2). The activities are expressed as IC50 values, i.e., concentrations leading to 50% inhibition of enzymatic activity. Based on the IC50 values for AChE and BChE, we calculated selectivity indexes (SI) that quantified the selectivity for each cholinesterase. SI is the ratio of IC50 for BChE/IC50 for AChE.
(§2) The enzyme activity in the final reaction mixture (2000 µL) was 0.2 U/mL, the concentration of ATCh (or BTCh) was 40 µM, and the concentration of DTNB was 100 µM for all reactions. The investigated derivatives were dissolved in DMSO and then diluted with demineralized water (conductivity 3 μS, equipment supplier BKG Water Treatment, Hradec Králové, Czech Republic) to a concentration of 1000 µM. Five different inhibitor concentrations were used for all tested compounds in the final reaction mixture. The final concentration of DMSO was 0.2%. All experiments were performed in triplicate. The average values of the reaction rate (v0-uninhibited reaction, vi-inhibited reaction) were used to construct the dependence of v0/vi on the concentration of inhibitors. IC50 values were calculated from obtained regression curve equations.
(§3) Acetylcholinesterase originating from electric eels (Electrophorus electricus L.; EeAChE) and butyrylcholinesterase obtained from equine serum (EqBChE) were used.

[3] = biological target: T2, AChE (obtained from electric eel; EeAChE) (Electrophorus electricus, UniProt O42275); experiment: biochemical; format: biochemical; details: for Selectivity BChE/AChE: SI = ratio of IC50 for BChE/IC50 for AChE, above 1 = stronger inhibition of AChE; for IC50: electric eel AChE, mean ± SD from three independent experiments
T2 construct: AChE (obtained from electric eel); purchased Merck (Prague, Czech Republic); host or cells: electric eel (natural source)
From the text: as §1, §2, §3

T1 sequence (P81908 whole entry): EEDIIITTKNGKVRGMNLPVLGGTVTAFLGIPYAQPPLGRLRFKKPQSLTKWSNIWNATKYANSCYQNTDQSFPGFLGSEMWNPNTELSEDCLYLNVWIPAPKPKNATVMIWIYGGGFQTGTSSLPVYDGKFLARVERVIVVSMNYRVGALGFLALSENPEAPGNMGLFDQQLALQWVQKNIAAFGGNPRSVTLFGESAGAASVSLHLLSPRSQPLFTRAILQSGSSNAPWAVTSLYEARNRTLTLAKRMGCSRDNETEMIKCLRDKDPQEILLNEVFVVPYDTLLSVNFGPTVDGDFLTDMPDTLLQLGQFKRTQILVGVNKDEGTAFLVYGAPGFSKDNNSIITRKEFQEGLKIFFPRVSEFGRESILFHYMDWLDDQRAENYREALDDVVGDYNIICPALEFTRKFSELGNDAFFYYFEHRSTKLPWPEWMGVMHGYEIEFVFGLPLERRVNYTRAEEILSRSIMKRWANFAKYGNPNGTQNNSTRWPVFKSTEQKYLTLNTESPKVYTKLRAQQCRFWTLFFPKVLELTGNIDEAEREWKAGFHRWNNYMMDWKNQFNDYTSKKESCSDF
T2 sequence (O42275 24-633): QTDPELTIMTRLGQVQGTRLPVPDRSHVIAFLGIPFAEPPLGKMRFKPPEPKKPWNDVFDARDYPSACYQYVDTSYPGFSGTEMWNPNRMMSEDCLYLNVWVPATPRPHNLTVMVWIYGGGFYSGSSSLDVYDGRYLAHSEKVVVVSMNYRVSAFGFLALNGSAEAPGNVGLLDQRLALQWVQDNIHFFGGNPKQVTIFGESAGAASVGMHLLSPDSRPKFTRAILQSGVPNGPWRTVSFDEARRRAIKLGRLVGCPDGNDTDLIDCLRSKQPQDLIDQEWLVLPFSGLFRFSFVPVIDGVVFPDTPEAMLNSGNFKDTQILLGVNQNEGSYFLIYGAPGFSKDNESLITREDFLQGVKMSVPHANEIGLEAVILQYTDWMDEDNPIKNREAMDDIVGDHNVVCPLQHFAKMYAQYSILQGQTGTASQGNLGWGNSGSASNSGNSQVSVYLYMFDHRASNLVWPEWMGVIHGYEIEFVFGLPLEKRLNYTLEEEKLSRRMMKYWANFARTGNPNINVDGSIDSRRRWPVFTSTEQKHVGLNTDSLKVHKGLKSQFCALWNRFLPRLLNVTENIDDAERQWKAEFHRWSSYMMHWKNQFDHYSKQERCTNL

| Structure (SMILES) | IC50 [1] | IC50 [2] | Selectivity BChE/AChE [3] | IC50 [3] |
| --- | --- | --- | --- | --- |
| CCCCCCCCCCCCCNC(=O)NNC(=O)c1ccc(C(F)(F)F)cc1 [P2] | 277 ± 10.3 µM | – | – | – |
| CNC(=O)NNC(=O)c1cccc(Br)c1 [2i, 2-(3-Bromobenzoyl)-N-methylhydrazine-1-carboxamide] | – | 354 ± 8.79 µM | 6.8 | 51.9 ± 2 µM |
| CCCCCCCCCCCCCNC(=O)NNS(=O)(=O)c1ccc(C(F)(F)F)cc1 [3d, N-Tridecyl-2-{[4-(trifluoromethyl)phenyl]sulfonyl}hydrazine-1-carboxamide] | – | 339 ± 11.6 µM | > 8.4 | 58.8 ± 0.96 µM |
| CCCCCCCCCCCCCNC(=O)NNC(=O)c1ccc(N(C)C)cc1 [1z, 2-[4-(Dimethylamino)benzoyl]-N-tridecylhydrazine-1-carboxamide] | – | 188 ± 2.22 µM | 2.1 | 87.67 ± 0.83 µM |
| CCCCCCCCCCCCCNC(=O)NNC(=O)c1ccccc1Br [2l, 2-(2-Bromobenzoyl)-N-tridecylhydrazine-1-carboxamide] | – | > 500 µM | >9.3 | 53.99 ± 0.44 µM |
| CCCCCCCCCCCCCNC(=O)NNC(=O)c1ccccc1C(F)(F)F [2d, N-Tridecyl-2-[2-(trifluoromethyl)benzoyl]hydrazine-1-carboxamide] | – | 422 ± 12.4 µM | 5.2 | 80.4 ± 2.1 µM |
| CCCCCCCCCCCCCNC(=O)NNC(=O)c1ccc(Cl)cc1 [1f, 2-(4-Chlorobenzoyl)-N-tridecylhydrazine-1-carboxamide] | – | 88.7 ± 3.28 µM | 1.0 | 86.59 ± 0.29 µM |
| CCCCCCCCCCCCCNC(=O)NNC(=O)c1ccccc1 [1ff, 2-Benzoyl-N-tridecylhydrazine-1-carboxamide] | – | 235 ± 5.57 µM | 3.2 | 73.4 ± 2.45 µM |
| CCCCCCCCCCCCCNC(=O)NNC(=O)c1ccc(F)cc1 [1d, 2-(4-Fluorobenzoyl)-N-tridecylhydrazine-1-carboxamide] | – | 483 ± 20.2 µM | 8.0 | 60.16 ± 0.53 µM |
| CNC(=O)NNC(=O)c1ccc(N(C)C)cc1 [1y, 2-[4-(Dimethylamino)benzoyl]-N-methylhydrazine-1-carboxamide] | – | 300 ± 13.6 µM | 4.3 | 70 ± 1.74 µM |
